Experimental data: patent US20040014028A1, “Method for determination of protective epitopes for vaccination, diagnosis and vaccine quality control” (Wolf Biotech, priority 2002, published 2004)

Tests used:
[1] = tested on: anti-peptide S2-affinity purified antibodies; test: Synthetic peptide ELISA on maleimide-activated plates with anti-peptide S2-affinity purified antibodies; format: binding, swine; conditions: for recognition by S2 affinity purified antibodies in ELISA: synthetic peptides bound to MBS coated plates; for ELISA signal (OD) with anti-peptide S2 affinity-purified antibodies: synthetic peptide bound to ELISA plate
Experimental: (§1) In FIG. 7, there is shown the reactivity of anti peptides-affinity purified antibodies to synthetic peptides bound to MBS coated ELISA plates. Results are expressed as corrected OD405 (OD tested peptide-OD irrelevant peptide P7, Table 1).
(§2) Several deduced peptides and variations of them were synthesized using solid phase technology and Fmoc standart chemistry. To perform ELISAs with these synthetic peptides, they were diluted in PBS pH 6.8 to a final concentration of 50 μg/ml, and then were used to coat Reacti-Bind Maleimide-Activated Plates (Pierce, Rockford, Ill.) for 5 hours at room temperature. Remaining maleimide groups were blocked by a 1-hour incubation with cysteine-HCl 10 μg/ml diluted in PBS pH 6.8. An extra blocking step was carried out by incubating the plate with PBS containing 10% milk. Sera or affinity-purified antibodies were added in different dilutions and incubated for 1 hour at room temperature.
(§3) Based on the previous results, anti-epitope A and anti-epitope B antibodies were affinity purified from a pool of precipitated antibodies with a SN titer of 1:512 using Keyhole-limpet hemocianine (KLH)-conjugated peptides coupled to CNBr-activated Sepharose as ligand as it is known in the art. R4N/R1N-affinity purified antibodies recognized peptides R4N, peptide R1N and peptide S1. All these peptides contain an (A/V)LVN motif.

[2] = tested on: swine neutralizing serum; test: Synthetic peptide ELISA with swine anti-PRRSV neutralizing serum; format: binding; conditions: NS from different immunized swine
Experimental: (§4) In FIG. 6 there is show the reactivity of Monoclonal antibody ISU25-C1 and swine anti-PRRSV hyperimmune sera to synthetic peptides bound to MBS coated ELISA plates. Results are expressed as corrected Optical density (OD) at 405 nm (OD405): (OD tested peptide-OD irrelevant peptide P7, Table 1). SN titer was determined against PRRSV Iowa strain. ELISA s/p ratio was determined as the difference in the optical density (OD) of the test serum between viral and control antigens divided by the difference in the OD of the positive reference between viral and control antigens. Serums 3, 5, 6 y 8 are from PRRSV-hyperimmunized pigs, serum 19 is a negative control, ISU 25-C1 and ISU 19A1 (Yang, L et al, Arch. Virol. 145:1599-1619, 2000) are anti-PRRSV neutralizing and non-neutralizing monoclonal antibodies respectively.
as §2

[3] = tested on: R4N/R1N-affinity purified antibodies; test: Synthetic peptide ELISA on maleimide-activated plates with R4N/R1N-affinity purified antibodies; format: binding, swine; conditions: synthetic peptides bound to MBS coated plates
Experimental: as §1, §2, §3

[4] = tested on: anti-peptide S2-affinity purified antibodies; test: Inhibition by synthetic peptides of binding of anti-peptide S2-affinity purified antibodies to phage clone S2-4; design: species or system swine; conditions: serial five-fold dilutions of peptide
Experimental: In FIG. 8, there is shown the inhibition by synthetic peptides of the binding of anti-peptide S2-affinity purified antibodies to phage clone S2-4. Serial five-fold dilutions of synthetic peptides S2 (filled squares), S3 (X) or irrelevant peptide P7(filled circle) were used. Results are expressed as the percentage of the signal obtained with anti-peptide S2 affinity purified antibodies in wells to which no peptides were added. Values are the average of four readings.
This stresses the importance of motif SHF in the composition of epitope B. Anti-peptide S2 affinity-purified antibodies, recognized to a similar extent peptides S2 (OD: 0.336) and S6 (OD: 0.369), confirming that residues H^38, Q^40, I^42, Y^43 and N^44 constitute the core of epitope B.

[5] = tested on: Monoclonal antibody ISU25-C1; test: Synthetic peptide ELISA with monoclonal antibody ISU25-C1; format: binding, mouse
Experimental: as §4
as §2, with “Sera or affinity-purified antibodies were added in different dilutions and incubated for 1 hour at room temperature.” left out

[6] = tested on: Monoclonal antibody ISU25-C1; test: Competition ELISA: inhibition by synthetic peptides of binding of monoclonal antibody ISU25-C1 to PRRSV-coated strips; design: species or system mouse; conditions: peptide concentration 333 μM
Excerpt: In FIG. 5 there is shown the inhibition by synthetic peptides of the binding of monoclonal antibody ISU25C1 (solid lines) or monoclonal antibody ISU19-A1 (dofted lines) to PRRSV in ELISA. Serial five-fold dilutions of synthetic peptide S4 were used (filled squares). Unrelated peptide P7 was used with monoclonal antibody ISU25C1 as a negative control (filled circles). Results are expressed as the percentage of the anti PRRSV-specific signal obtained with each monoclonal antibody in wells to which no peptides were added. Values are the average of four readings.
To perform competition assays, several dilutions of peptide S4 and irrelevant peptide […] (shown in Table 1) were incubated with Monoclonal antibody ISU25-C1 for 1.5 hours at room temperature. Then, the antibody-peptide mix was added to PRRSV-coated ELISA strips (IDDEX Lab., Inc; Westbrook, Me.) for 45 minutes.

[7] = tested on: sera from hyperimmunized pigs; test: Phage-ELISA with sequential sera from hyperimmunized pigs; format: binding, swine; conditions: early sera (20 days pi), ELISA positive, negative or low SN titer
Experimental: Epitopes A and B are represented by phage clones 01 and S2-4 (FIG. 1), respectively. ELISA s/p ratio was determined as the difference in the optical density (OD) of the test serum between viral and control antigens divided by the difference in the OD of the positive reference between viral and control antigens.
(§5) To detect peptides on the coat of phages, individual clones shown in FIG. 3 were propagated for 4.5 hours in E. coli ER2738 and then they were purified by two precipitations with PEG 8000. […] phages were added to each well of a Immulon 2HB (Dynex Technologies Inc, Chantilly, Va.) in sodium bicarbonate 0.1 M pH 8.6, and incubated for 16 hours at room temperature in a humidified chamber. Plates were blocked with PBS containing 10% milk for three hours at room temperature. Swine sera or Monoclonal antibody from the tissue culture supernatant were preadsorbed in PBS containing 10% non-fat milk added with 100 μg/ml of E. coli proteins. […] The results were read in a spectrophotometer at 405 nm.
Anti-PRRSV neutralizing antibodies appear late after infection and they are mainly directed against GP5. To determine a correlation between time post-infection and epitope recognition, we evaluated sera from several pigs at two different times of the hyperimmunization protocol as shown in FIG. 9.

[8] = tested on: swine anti-PRRSV NS; test: Phage-ELISA with swine anti-PRRSV neutralizing serum; format: binding
Experimental: (§6) In FIG. 4 there is shown the reactivity of swine sera and monoclonal antibodies to selected cloned phages. Results are expressed as corrected OD405 (OD of selected phage-OD unselected phage library NS: serum from pig #6 with a neutralizing titer >64 and ELISA s/p ratio 1.053 NNS: serum from pig #5 with a neutralizing titer <4 and ELISA s/p ratio 0.652.
as §5, with “proteins. In addition, 10^10 pfu/ml of non-selected phages were added to the antibodies to reduce background caused by anti M-13 activity found in animal sera. The plates were washed six times with PBS 0.05% Tween-20 and the peroxidase-conjugated secondary antibody (1:500) was added for 30 minutes at 37 C.” for “proteins.”

[9] = tested on: swine anti-PRRSV NNS; test: Phage-ELISA with swine anti-PRRSV non-neutralizing serum; format: binding
Experimental: as §6
as §5, with “proteins. In addition, 10^10 pfu/ml of non-selected phages were added to the antibodies to reduce background caused by anti M-13 activity found in animal sera. The plates were washed six times with PBS 0.05% Tween-20 and the peroxidase-conjugated secondary antibody (1:500) was added for 30 minutes at 37 C.” for “proteins.”

[10] = tested on: Monoclonal antibody ISU25-C1; test: Phage-ELISA with monoclonal antibody ISU25-C1; format: binding, mouse
Experimental: as §6
as §5, with “proteins. In addition, 10^10 pfu/ml of non-selected phages were added to the antibodies to reduce background caused by anti M-13 activity found in animal sera. The plates were washed six times with PBS 0.05% Tween-20 and the peroxidase-conjugated secondary antibody (1:500) was added for 30 minutes at 37 C.” for “proteins.”

Sequence | recognition by S2 affinity purified antibodies in ELISA [1] | recognition by swine neutralizing serum in peptide ELISA [2] | recognition by R4N/R1N-affinity purified antibodies in ELISA [3] | also measured
ALVNIPISNNLAC [peptide R4N] | did not recognize | recognized | recognized | –
SGSGANNSSSSGSGSIYNC [peptide S3, peptide S2 with motif SHF replaced by GSG] | did not recognize | completely abrogated | – | inhibition of the binding of anti-peptide S2-affinity purified antibodies to clone S2-4 [4]: inhibited the binding
SGSGANNSSSSHFQSIYNC [peptide S2, GP5 residues 27-44 with residues 27-30 changed to SGSG] | recognized | still recognized | did not recognize | ELISA signal (OD) with anti-peptide S2 affinity-purified antibodies [1]: 0.336 OD; recognition by Monoclonal antibody ISU25-C1 in peptide ELISA [5]: does not recognize; inhibition of the binding of anti-peptide S2-affinity purified antibodies to clone S2-4 [4]: inhibited to a greater extent than peptide S3
SGSGANSNSSSHLQLIYNLTLCELC [S6] | – | – | – | ELISA signal (OD) with anti-peptide S2 affinity-purified antibodies [1]: 0.369 OD
SGSGSNNSSSSAC [peptide ΔR1N, R1N with residues 27-30 VLVN changed to irrelevant motif SGSG] | – | abrogated | did not recognize | –
SHITSYPAYFWC [peptide S4, mimotope for ISU25-C1] | – | do not recognize | – | inhibition of the binding of Monoclonal antibody ISU25-C1 to PRRSV [6]: 60%; recognition by Monoclonal antibody ISU25-C1 in peptide ELISA [5]: recognized
VLVNANNSSSSHFQSIYNC [peptide S1, residues 27 to 43 of GP5 of IA 97-7895, contains motifs VLVN and HXXXIYN] | recognized | strongly recognized | recognized | –
VLVNSNNSSSSAC [peptide R1N, aminoacids 27-38 of the GP5 of PRRSV IA 97-7895 isolate] | did not recognize | recognized | recognized | –
YKNTHLDLIYNA [phage clone S2-4] | – | – | – | reactivity of sera obtained shortly after the beginning of the immunization [7]: very weakly; recognition of phage-displayed peptide by swine anti-PRRSV neutralizing serum (NS) [8]: strongly recognized; recognition of phage-displayed peptide by swine anti-PRRSV non-neutralizing serum (NNS) [9]: not by swine non-neutralizing serum; recognition of phage-displayed peptide by Monoclonal antibody ISU25-C1 [10]: not by swine non-neutralizing serum or by monoclonal antibody ISU25-C1
